The values below are quoted from earlier work in patent publication US10729136B2, “Synergistic herbicidal composition and use thereof” (priority 2015, dated 2020).

Structures are written as SMILES.

For data set [1] the following is noted: 0.05% Rhodasurf DA630 solution, pH 5.5, after 10 days.

In the case of `CS(=O)(=O)c1ccc(C(=O)C2C(=O)CCCC2=O)c([N+](=O)[O-])c1` [Form 2, 2-(4-mesyl-2-nitrobenzoyl)cyclohexane-1,3-dione], the “Polymorphic form (microscopy, FT-IR)” value in data set [1] was “still predominately Form 2”. Also, the “Polymorphic form of the suspension, determined periodically” value (pH between 3.5 and 4, over 3 weeks) is reported as “always found to be Form 2”. Moreover, the “Time for Form 2 to transform to Form 1” value (stirred aqueous suspension, below pH 2.5) is at most 1 h. Further, the “Conversion of Form 2 to Form 1 when seeded” value (stirred aqueous suspension, pH 3, seeded with Form 1) was “converted to Form 1 when seeded with Form 1 over four hours”. The “Polymorphic stability of Form 2” value (stirred aqueous suspension, pH 3, unseeded) is listed as “stable”.
